From patent publication US9617197B2, “Compositions and methods for treating inflammatory diseases” (University of Virginia Patent Foundation, priority 2010, dated 2017)

How the values were obtained:
[1] = Toxicity in murine pre-clinical models; assay type: in vivo
[2] = Chemical stability in pH 6.7 buffer; assay type: physicochemical
[3] = target: T1, human recombinant LTA4H enzyme (LTA4H AP activity) (Homo sapiens, UniProt P09960); details: Jiang et al. (2008); cited from earlier work
T1 sequence (P09960 1-611): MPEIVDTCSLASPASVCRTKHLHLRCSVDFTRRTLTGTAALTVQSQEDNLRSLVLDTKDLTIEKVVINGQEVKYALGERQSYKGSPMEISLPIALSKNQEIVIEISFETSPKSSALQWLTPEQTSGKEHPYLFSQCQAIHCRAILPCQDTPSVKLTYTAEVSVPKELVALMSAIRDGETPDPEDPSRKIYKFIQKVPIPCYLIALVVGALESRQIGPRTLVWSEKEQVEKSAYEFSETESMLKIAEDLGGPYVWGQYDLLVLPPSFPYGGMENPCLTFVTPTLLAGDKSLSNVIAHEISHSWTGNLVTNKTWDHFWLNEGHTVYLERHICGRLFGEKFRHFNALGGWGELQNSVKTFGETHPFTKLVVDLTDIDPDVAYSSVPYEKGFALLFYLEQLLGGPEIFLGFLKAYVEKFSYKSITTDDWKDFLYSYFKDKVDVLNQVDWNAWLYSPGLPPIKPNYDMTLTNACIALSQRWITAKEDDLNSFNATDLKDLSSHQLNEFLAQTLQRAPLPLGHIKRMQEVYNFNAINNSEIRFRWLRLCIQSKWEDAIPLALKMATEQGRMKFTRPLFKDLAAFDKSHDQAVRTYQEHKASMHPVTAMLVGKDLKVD

[4] = Bioavailability in mice; assay type: in vivo
[5] = Encapsulation and equilibrium solubility test (HPLC); assay type: physicochemical
Procedure: To 5.3 mg (1.0 equivalent) of MDM was added 160.0 mg (4.0 equivalents) of CDX followed by 4.8 mL of water. […] The homogeneity of the solution was analyzed by HPLC.
Solubility measurement. […] Method: isocratic 80:20 acetonitrile-water at 1.0 mL/min, injection volume=5 μL, monitoring at λ=250 nm.
The method was carried out above with phosphate buffer saline (PBS, Ampresco, 20× concentrate, pH7.5; 500 μL of PBS concentrate was added to 9500 μL of water). To 6.0 mg (1.0 equivalents) of MDM was added 180.0 mg (4.0 equivalents) of CDX followed by 5.8 mL of water. […] The homogeneity of the solution was analyzed by HPLC.
The method was carried out as above. To 2.4 mg (1.0 equivalents) of MDM was added 0.035 g (2.0 equivalents) of CDX followed by 2.4 mL of PBS solution. […] The homogeneity of the solution was analyzed by HPLC.

[6] = test system: elastase induced murine pulmonary emphysema; test: Elastase-induced murine pulmonary emphysema model; assay type: in vivo, mice; details: for pre mortem lung compliance (Flexivent): 4 weeks after intra-nasal elastase, drug intra-peritoneal in peanut oil, FIG. 3; for severity of pulmonary emphysema: vs vehicle treated control animals
Procedure: To investigate the role that LTA4H plays in the pathogenesis of human diseases, murine models of elastase-induced pulmonary emphysema (Example 1) and LPS-induced acute lung injury (Example 3) were tested. In order to establish the elastase-dose dependent severity of murine pulmonary emphysema, increasing doses of porcine elastase were instilled into murine lungs of 129J background via the intra-nasal route. Four weeks after elastase was instilled, mouse lungs were harvested en block, inflated with 1% low melting point agarose gel (LMPA) at 25 cm melted 1% LMPA pressure. Lungs were then fixed overnight in formaldehyde. […] This confirmed that intra-nasal elastase administration was able to induce pulmonary emphysema in a dose-dependent manner.
(§1) In order to establish the biological roles of LTA4H AP activity in the pathogenesis of pulmonary emphysema, wild type mice were exposed to porcine elastase via the intra-nasal route and then treated with one LTA4H AP activity augmentor (compound 66, MDM), a LTA4H AP activity inhibitor (compound 67, PDM), or vehicle (peanut oil). Synthesis of MDM was accomplished by treatment of 4-benzyl phenol in dimethylformamide solvent with potassium hydroxide followed by methyl iodide (FIG. 1). Synthesis of compound PDM was accomplished by treatment of 4-benzyl phenol in dimethylformamide solvent with potassium hydroxide followed by butyl iodide (FIG. 1). The peptidase activity of the compound was determined following the method of Jiang and co-workers (2008).
Elastase (0.75 μg elastase per gm mouse weight) was instilled via the intra-nasal route. After 4 weeks, mice were sedated, intubated, and ventilated with Sireq Flexivent to measure lung compliance pre mortem. It was understood that lungs with more severe emphysema would have lost more elasticity, and thus, their lung compliance would be greater when measured by a small animal ventilator (FIG. 3). Once lung compliance was measured, mice were euthanized. Lungs were harvested en block without damaging outer coverings. Once harvested, lungs were inflated with 1% low melting point agarose gel (LMPA) at 25 cm melted 1% LMPA gel pressure. Once inflated, the total lung volumes were measured by volume displacement technique (FIG. 4). It was understood that lungs with more severe emphysema would have lost more elasticity, and thus their lung volume would be greater after being inflated with a uniform pressure. After the total lung volume measurement, lungs were fixed in para-formaldehyde overnight. On the following day, whole lungs were photographed (FIG. 5). Lungs with more severe emphysema would have lost more elasticity, and thus their lungs would be larger after being fixed with para-formaldehyde. The lungs were then paraffin embedded, paraffin sections were H&E stained (FIG. 6A), and morphometry was performed by using NIH ImagePro software and custom written macro string (Shim et al., 2006; Shim et al., 2010; Zheng et al., 2000; Zu et al., 1999). Alveolar intercepts were calculated and averaged from at least 8 animals in each group to yield chord length of each group (FIG. 6B). It was understood that alveoli from lungs with more severe emphysema would be larger after losing more elasticity and thus their chord length of the alveoli would be longer.

[7] = target: T1, human recombinant LTA4H enzyme (LTA4H AP activity); test: In vitro aminopeptidase activity assay; assay type: biochemical; details: recombinant LTA4H + Ala-pNA; 500 μM, 10 μM, 5 μM, 100 nM; FIG. 2
Procedure: FIG. 2. In vitro aminopeptidase activity assay. The peptidase activity of compounds was determined following the method of Jiang and co-workers (2008). […] No Enzyme=buffer. Enzy=buffer+recombinant LTA4H. 500 μM, 10 μM, 5 μM, and 100 nM=buffer+recombinant LTA4H+Ala-pNA+MDM.
FIG. 7. Biological activities of 2-hydroxypropyl-β-cyclodextrin encapsulated 4-methoxydiphenylmethane (“CDX-MDM”). […] No Enzyme=buffer. 0 M=buffer+recombinant LTA4H+Ala-pNA+no MDM. 500 μM, 10 μM, 5 μM, and 100 nM=buffer+recombinant LTA4H+Ala-pNA+MDM (500 μM, 10 μM, 5 μM, or100 nM).
as §1

SMILES: COc1ccc(Oc2ccccc2)cc1 [1-methoxy-4-phenoxybenzene]
- mortality [1]: greater than 85%
- chemical stability in pH 6.7 buffer [2]: chemical instability
- LTA4H AP activity in vitro [3]: upregulates

SMILES: COc1ccc(Cc2ccccc2)cc1 [MDM, 4-methoxydiphenylmethane]
- chemical stability in pH 6.7 buffer [2]: stable
- bioavailability ([4]; encapsulated formulation with 2-hydroxypropyl-β-cyclodextrin, intra-nasal administration to mice): bioavailable
- bioavailability ([4]; intra-peritoneal injection of mice, MDM combined with peanut oil): bioavailable
- concentration in solution by standard curve ([5]; 1:2 MDM:CDX in PBS, calculated 5.04 mM): 2950 µM
- fraction of the MDM in the homogeneous solution at equilibrium ([5]; 1:2 ratio of MDM:CDX in PBS): 59%
- solubility with 2 equivalents of CDX ([5]; PBS solution): 590 µg/mL
- pre mortem lung compliance (Flexivent) [6]: significantly lower lung compliance
- post mortem total lung volume (volume displacement) ([6]; vs PDM or vehicle control, FIG. 4): much less emphysematous
- gross size of inflated whole lungs ([6]; vs PDM or vehicle control, FIG. 5): much smaller
- lung histology chord length ([6]; vs drug 67 or vehicle (peanut oil), FIG. 6): shorter
- severity of pulmonary emphysema [6]: significantly less severe
- LTA4H AP activity [7]: augment

SMILES: CCCCCOc1ccc(Cc2ccccc2)cc1 [PDM, 4-pentoxydiphenylmethane]
- pre mortem lung compliance (Flexivent) [6]: high lung compliance similar to lungs treated with vehicle
- severity of pulmonary emphysema [6]: deleterious outcomes
- LTA4H AP activity [7]: decrease
